Measured values: US4183931A, “2-Ketoalkyl-4(3H)-quinazolinones” (Research Corporation, priority 1977, dated 1980)

Key:
[1] = NINCDS rotorod ataxia test (minimal neurotoxicity); type: in vivo, mice; details: mouse, in vivo, ip; secondary evaluation, at time of peak effect
Method: 1. Neurological Activity Tests. The biological testing program is designed to evaluate the following four aspects of drug action: (1) the existence and specificity of anticonvulsant activity; (2) the toxicity, particularly to the central nervous system; and, if the results of (1) and (2) are favorable, (3) the potency and protective index, a comparison between toxic and effective dose and (4) the time course of activity. Compounds were evaluated for anticonvulsant activity in two seizure models, the maximal electroshock seizure (MES) test and the subcutaneous pentylenetetrazol (Metrazol) seizure threshold (scMet) test.
Central nervous system toxicity was evaluated in the rotorod ataxia test. This test is designed to detect minimal neurotoxicity. The animal is placed on a 1-inch diameter knurled plastic rod rotating at 6 rpm. Normal mice can remain indefinitely on a rod rotating at this speed. Neurological deficit is defined as the failure of the animal to remain on the rod for at least 1 minute. This test has a clear end-point, is quantifiable and correlates well with the clinical assessment of minimal toxicity.
Specific anticonvulsant evaluations performed by NINCDS using MES, scMet and Rotorod assays are presented in Tables III & IV for fourteen new compounds as well as several known compounds. Table III centers attention on 2-substituted-3-o-tolyl-4-(3H)-quinazolinones while Table IV includes the findings for various other 2,3-disubstituted-4(3H)-quinazolinones. As described earlier, the MES, scMet and Rotorod tests were performed one-half hour and four hours after administration of each compound. The tables identify the dosage level that elicited a positive result, such as protection against MES and scMet induced seizures, or loss of balance on the rotorod.
In the Secondary Evaluation, median effective doses (ED50) are determined in the MES, scMet and Rotorod assays using the procedures defined in Pharmacology, 95, 99-113 (1949). In addition, each compound's anticonvulsant activity and neurotoxicity over time are determined by measuring the effect of an intraperitoneally administered estimated median effective dose on maximal electroshock seizures and rotorod performance at intervals of 1/2, 1, 2, 3, 4, 6 and 8 hours.
Separate groups of animals are used for each time period. The times of peak toxic and anticonvulsant effect are taken from the resulting graph of percent of animals responding vs. time, and the determinations of median effective doses are performed at those times.

[2] = Neuropharmacological Profile (NPP): general CNS observational screen (depression, righting reflex, ataxia)
[3] = NPP lethality (estimated LD50); details: mouse, in vivo, ip
[4] = NPP maximal electroshock seizure (MES) protection; type: in vivo, white male mice of the Carworth Farm Strain CF-1; details: Mus musculus, ip; conducted at 30 mg/kg i.p.
[5] = at 100 mg/kg, i.p., mice, score 0-8

## O=C(Cc1nc2ccccc2c(=O)n1-c1ccccc1Cl)c1ccncc1 [IVd, 2-[2-Oxo-2-(4-pyridyl)ethyl]-3-o-chlorophenyl-4(3H)-quinazolinone]
[1]
  TD50: 137 mg/kg
[2]; NPP summary
  behavioral activity compared with methaqualone: approaches that of methaqualone
[2]; at 10 mg/kg, i.p., mice, score 0-8
  Depression: 2
[2]; at 30 mg/kg (value in parentheses), i.p., mice, score 0-8
  CNS Depression: 2
[2]; [5]
  Ataxia: 6
  CNS Depression: 6
  Righting reflex: 8
[3]
  LD50 at 48 h: 237 mg/kg
[4]
  responders at 30 mg/kg: 50%
